# Target: T1, human NaV1.8 (Homo sapiens, UniProt Q9Y5Y9)
# T1 construct: expressed in transfected cells
# Assay: Nav1.8 Qube® Assay (automated 384-well patch-clamp, inhibition of sodium current)
# Format: cell-based
# Details: human NaV1.8 channels stably expressed in HEK 293 cells, room temperature
# Protocol: Compounds were tested on human NaV1.8 and NaV1.5 channels stably expressed in human embryo kidney (HEK) 293 cells. Sodium current measurements on Qube® were conducted as follows: automated 384-well patch-clamp assays on the Qube® platform (Sophion Biosciences) were used to measure the inhibition of sodium flow through human NaV1.8 and NaV1.5 channels. Whole-cell voltage-clamp recordings were performed in QChips® (Sophion Biosciences) at room temperature. NaV1.8 current measurements on Qube® were obtained as follows: NaV1.8 currents were elicited with a 10 second 1 Hertz (Hz) pulse train from a holding potential of −90 millivolts (mV), delivered to the cells once per minute in the control condition (DMSO only) and after compound addition. The 1 hertz pulse train stimulation consisted of ten test pulses to 10 millivolt (mV) for 20 milliseconds (ms), each of which was followed by a 980 millisecond repolarization to −67 millivolts. At the end of the 10 second pulse train stimulation, a 5 second hyperpolarization step to −100 millivolt (mV) was used to recover NaV1.8 from fast inactivation. The peak currents elicited by the 1st and 10th test pulses were used to determine IC50 values for resting inhibition and inactivated state inhibition. NaV1.5 current measurements on Qube® were obtained as follows: NaV1.5 currents were elicited with a 20 second 3 Hertz pulse train in the control condition (DMSO only) and after compound addition. The pulse train consisted of sixty 20 millisecond test pulses to 0 millivolt from a holding potential of −80 millivolt (mV). The average peak currents elicited by the last 3 test pulses were used to determine IC50 values for NaV1.5 inhibition.
# The following buffers were used for the Qube® recordings: External buffer for NaV1.8 Qube® recording: 150 NaCl, 2 CaCl2, 5 KCl, 1 Mg Cl2, 10 HEPES, 12 Dextrose; External buffer for Qube® NaV1.5 recording: 120 N-Methyl-D-Glucamine, 40 NaCl, 1 KCl, 2.7 CaCl2, 5 HEPES, 0.5 MgCl2; and Internal buffer for Qube® recording: 120 CsF, 30 CsCl, 10 EGTA, 5 HEPES, 5 NaF, 2 MgCl2.
# For all Qube® experiments offline analysis was used to determine percent inhibition as a function of drug concentration. IC50 values were determined by fitting to the Hill equation.
# T1 sequence (Q9Y5Y9 whole entry): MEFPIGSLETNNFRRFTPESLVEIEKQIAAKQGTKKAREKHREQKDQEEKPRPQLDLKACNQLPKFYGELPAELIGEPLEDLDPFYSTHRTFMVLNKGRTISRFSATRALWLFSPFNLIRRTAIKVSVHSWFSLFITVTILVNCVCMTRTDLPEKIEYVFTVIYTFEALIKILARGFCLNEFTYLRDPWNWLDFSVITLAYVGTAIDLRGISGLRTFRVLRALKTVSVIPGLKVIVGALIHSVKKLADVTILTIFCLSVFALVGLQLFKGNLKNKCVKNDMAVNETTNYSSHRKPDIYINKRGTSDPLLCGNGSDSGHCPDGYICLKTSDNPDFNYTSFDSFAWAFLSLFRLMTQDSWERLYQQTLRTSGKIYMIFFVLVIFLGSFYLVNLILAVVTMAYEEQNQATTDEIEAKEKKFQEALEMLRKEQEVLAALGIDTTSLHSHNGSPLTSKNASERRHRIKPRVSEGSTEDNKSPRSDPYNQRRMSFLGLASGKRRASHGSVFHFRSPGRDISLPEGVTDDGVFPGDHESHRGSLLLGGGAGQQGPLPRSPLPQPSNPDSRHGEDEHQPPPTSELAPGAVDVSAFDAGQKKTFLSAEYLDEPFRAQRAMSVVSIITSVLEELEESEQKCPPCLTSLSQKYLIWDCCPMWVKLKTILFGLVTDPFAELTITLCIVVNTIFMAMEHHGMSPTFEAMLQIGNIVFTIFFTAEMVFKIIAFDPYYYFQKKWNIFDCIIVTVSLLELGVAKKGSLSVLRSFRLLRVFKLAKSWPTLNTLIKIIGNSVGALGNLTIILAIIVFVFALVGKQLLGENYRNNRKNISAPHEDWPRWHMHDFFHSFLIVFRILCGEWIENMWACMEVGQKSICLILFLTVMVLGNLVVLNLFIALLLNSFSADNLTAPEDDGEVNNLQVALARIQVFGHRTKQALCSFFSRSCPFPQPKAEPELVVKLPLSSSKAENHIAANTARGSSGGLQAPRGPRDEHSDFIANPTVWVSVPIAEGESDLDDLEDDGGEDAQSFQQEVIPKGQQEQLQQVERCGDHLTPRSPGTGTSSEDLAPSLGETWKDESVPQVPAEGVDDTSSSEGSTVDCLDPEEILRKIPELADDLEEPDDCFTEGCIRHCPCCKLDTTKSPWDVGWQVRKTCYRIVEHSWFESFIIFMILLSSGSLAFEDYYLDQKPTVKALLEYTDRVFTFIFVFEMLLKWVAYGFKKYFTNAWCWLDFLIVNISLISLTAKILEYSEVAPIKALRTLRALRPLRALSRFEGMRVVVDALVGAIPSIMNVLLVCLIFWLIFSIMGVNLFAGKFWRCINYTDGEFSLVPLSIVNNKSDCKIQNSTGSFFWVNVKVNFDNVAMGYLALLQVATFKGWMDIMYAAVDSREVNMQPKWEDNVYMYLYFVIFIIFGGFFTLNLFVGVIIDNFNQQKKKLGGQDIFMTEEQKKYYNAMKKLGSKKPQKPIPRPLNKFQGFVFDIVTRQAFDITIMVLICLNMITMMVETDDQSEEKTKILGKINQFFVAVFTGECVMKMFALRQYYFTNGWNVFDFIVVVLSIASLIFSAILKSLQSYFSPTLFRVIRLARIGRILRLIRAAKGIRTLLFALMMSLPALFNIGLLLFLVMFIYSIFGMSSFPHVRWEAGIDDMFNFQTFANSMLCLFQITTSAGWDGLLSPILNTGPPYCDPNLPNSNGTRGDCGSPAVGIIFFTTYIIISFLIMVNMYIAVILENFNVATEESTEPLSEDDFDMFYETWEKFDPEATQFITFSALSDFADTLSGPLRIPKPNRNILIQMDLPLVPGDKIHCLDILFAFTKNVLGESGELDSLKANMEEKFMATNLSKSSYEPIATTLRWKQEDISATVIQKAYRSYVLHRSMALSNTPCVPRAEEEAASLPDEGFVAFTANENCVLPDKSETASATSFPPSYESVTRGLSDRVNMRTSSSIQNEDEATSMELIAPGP
row,Structure (SMILES),IC50 [nM]
1,"C[C@@H]1C(=O)NCCN1C(=O)NC(c1ccc(F)c(Cl)c1F)C1CC2(C1)CC2(F)F (single isomer, unassigned) [Example 22B, (2R)-N-((R or S)-(3-chloro-2,4-difluoro-phenyl)(cis or trans-1,1-difluoro-spiro[2,3]-hexan-5-yl)methyl)-2-methyl-3-oxopiperazine-1-carboxamide]",5.89
2,"C[C@@H]1C(=O)NCCN1C(=O)NC(c1ccc(F)c(Cl)c1F)C1CC2(C1)CC2(F)F (single isomer, unassigned) [Example 22C, (2R)-N-((S or R)-(3-chloro-2,4-difluoro-phenyl)(trans or cis-1,1-difluoro-spiro[2.3]-hexan-5-yl)methyl)-2-methyl-3-oxopiperazine-1-carboxamide]",84.5
3,"C[C@@H]1C(=O)NCCN1C(=O)NC(c1ccc(F)c(Cl)c1F)C1CC2(C1)CC2(F)F (single isomer, unassigned) [Example 22D, (2R)-N-((So or R)-(3-chloro-2,4-difluoro-phenyl)(cis or trans-1,1-difluoro-spiro[2.3]-hexan-5-yl)methyl)-2-methyl-3-oxopiperazine-1-carboxamide]",85.2
4,"C[C@@H]1C(=O)NCCN1C(=O)NC(c1ccc(F)c(Cl)c1F)C1CC2(C1)CC(F)(F)C2 (single isomer, unassigned) [Example 23, (2R)-N-((R or S)-(3-chloro-2,4-difluoro-phenyl)(6,6-difluoro-spiro[3.3]heptan-2-yl)methyl)-2-methyl-3-oxopiperazine-1-carboxamide]",1.16
5,"C[C@@H]1C(=O)NCCN1C(=O)NC(c1ccc(F)c(Cl)c1F)C1CC(F)(F)C1 (single isomer, unassigned) [Example 24A, (2R)-N-((R or S)-(3-chloro-2,4-difluoro-phenyl)(3,3-difluoro-cyclobutyl)methyl)-2-methyl-3-oxopiperazine-1-carboxamide]",2630
6,"C[C@@H]1C(=O)NCCN1C(=O)NC(c1ccc(F)c(Cl)c1F)C1CC(F)(F)C1 (single isomer, unassigned) [Example 24B, (2R)-N-((S or R)-(3-chloro-2,4-difluoro-phenyl)(3,3-difluoro-cyclobutyl)methyl)-2-methyl-3-oxopiperazine-1-carboxamide]",29.1
7,"C=C1CC(C(NC(=O)N2CCNC(=O)[C@H]2C)c2ccc(F)c(Cl)c2F)C1 (single isomer, unassigned) [Example 25A, (2R)-N-((R or S)-(3-chloro-2,4-difluoro-phenyl)(3-methylene-cyclobutyl)methyl)-2-methyl-3-oxopiperazine-1-carboxamide]",10.4
8,"C=C1CC(C(NC(=O)N2CCNC(=O)[C@H]2C)c2ccc(F)c(Cl)c2F)C1 (single isomer, unassigned) [Example 25B, (2R)-N-((S or R)-(3-chloro-2,4-difluoro-phenyl)(3-methylene-scyclobutyl)methyl)-2-methyl-3-oxopiperazine-1-carboxamide]",652
9,"O=C1NCCN(C(=O)N[C@H](c2ccc(F)c(Cl)c2F)[C@H]2C[C@H](C(F)(F)F)C2)C1C1CC1 (single isomer, unassigned) [Example 27A, (R or S)—N—((S)-(3-chloro-2,4-difluorophenyl)(trans-3-(trifluoromethyl)cyclobutyl)methyl)-2-cyclopropyl-3-oxopiperazine-1-carboxamide]",0.8
10,"O=C1NCCN(C(=O)N[C@H](c2ccc(F)c(Cl)c2F)[C@H]2C[C@H](C(F)(F)F)C2)C1C1CC1 (single isomer, unassigned) [Example 27B, (S or R)—N—((S)-(3-chloro-2,4-difluorophenyl)(trans-3-(trifluoromethyl)cyclobutyl)methyl)-2-cyclopropyl-3-oxopiperazine-1-carboxamide]",107
11,"C[C@@H]1C(=O)NCCN1C(=O)NC(c1ccc(F)c(Cl)c1F)C1CC2(CC2)C1 (single isomer, unassigned) [Example 28A, (2R)—N—((R or S)-(3-chloro-2,4-difluorophenyl)(spiro[2.3]hexan-5-yl)methyl)-2-methyl-3-oxopiperazine-1-carboxamide]",2.65
12,"C[C@@H]1C(=O)NCCN1C(=O)NC(c1ccc(F)c(Cl)c1F)C1CC2(CC2)C1 (single isomer, unassigned) [Example 28B, (2R)—N—((S or R)-(3-chloro-2,4-difluorophenyl)(spiro[2.3]hexan-5-yl)methyl)-2-methyl-3-oxopiperazine-1-carboxamide]",191
13,"C[C@@H]1C(=O)NCCN1C(=O)NC(c1ccc(F)c(Cl)c1F)[C@H]1C[C@H](C(F)F)C1 (single isomer, unassigned) [Example 29A]",8.91
14,"C[C@@H]1C(=O)NCCN1C(=O)NC(c1ccc(F)c(Cl)c1F)[C@H]1C[C@H](C(F)F)C1 (single isomer, unassigned) [Example 29B]",66.5
15,"C[C@@H]1C(=O)NCCN1C(=O)NC(c1ccc(F)c(Cl)c1F)C12CC(C(F)(F)F)(C1)C2 (single isomer, unassigned) [Example 30A]",281
16,"C[C@@H]1C(=O)NCCN1C(=O)NC(c1ccc(F)c(Cl)c1F)C12CC(C(F)(F)F)(C1)C2 (single isomer, unassigned) [Example 30B]",3.12
17,"C[C@@H]1C(=O)NCCN1C(=O)NC(c1ccc(F)c(Cl)c1F)C1CC(C)(C)C1 (single isomer, unassigned) [Example 31A, (2R)-N-((R or S)-(3-chloro-2,4-difluoro-phenyl)(3,3-dimethyl-cyclobutyl)methyl)-2-methyl-3-oxopiperazine-1-carboxamide]",0.74
18,"C[C@@H]1C(=O)NCCN1C(=O)NC(c1ccc(F)c(Cl)c1F)C1CC(C)(C)C1 (single isomer, unassigned) [Example 31B, (2R)-N-((S or R)-(3-chloro-2,4-difluoro-phenyl)(3,3-dimethyl-cyclobutyl)methyl)-2-methyl-3-oxopiperazine-1-carboxamide]",71
19,"C[C@@H]1C(=O)NCCN1C(=O)NC(c1ccc(C(F)(F)F)nc1)C1CC(C)(C)C1 (single isomer, unassigned) [Example 33A, (2R)-N-((R or S)-(3,3-dimethylcyclobutyl)(6-(trifluoromethyl)pyridin-3-yl)methyl)-2-methyl-3-oxopiperazine-1-carboxamide]",135
20,"C[C@@H]1C(=O)NCCN1C(=O)NC(c1ccc(C(F)(F)F)nc1)C1CC(C)(C)C1 (single isomer, unassigned) [Example 33B, (2R)-N-((S or R)-(3,3-dimethylcyclobutyl)(6-(trifluoromethyl)pyridin-3-yl)methyl)-2-methyl-3-oxopiperazine-1-carboxamide]",3590
21,"O=C1CN(C(=O)NC(c2ccc(F)c(Cl)c2)C23CC(C(F)(F)F)(C2)C3)CCN1 (single isomer, unassigned) [Example 34A, N-((R or S)-(3-chloro-4-fluorophenyl)(3-(trifluoromethyl)bicyclo [1.1.1]pentan-1-yl)methyl)-3-oxopiperazine-1-carboxamide]",601
22,"O=C1CN(C(=O)NC(c2ccc(F)c(Cl)c2)C23CC(C(F)(F)F)(C2)C3)CCN1 (single isomer, unassigned) [Example 34B, N-((S or R)-(3-chloro-4-fluorophenyl)(3-(trifluoromethyl)bicyclo [1.1.1]pentan-1-yl)methyl)-3-oxopiperazine-1-carboxamide]",47.1
23,"C[C@@H]1C(=O)NCCN1C(=O)NC(c1ccc(F)c(Cl)c1)C12CC(C(F)(F)F)(C1)C2 (single isomer, unassigned) [Example 35A, (2R)-N-((R or S)-(3-chloro-4-fluoro-phenyl)(3-(trifluoro-methyl)bicyclo[1.1.1]pen-tan-1-yl)methyl)-2-methyl-3-oxopiperazine-1-carboxamide]",6.08
24,"C[C@@H]1C(=O)NCCN1C(=O)NC(c1ccc(F)c(Cl)c1)C12CC(C(F)(F)F)(C1)C2 (single isomer, unassigned) [Example 35B, (2R)-N-((S or R)-(3-chloro-4-fluoro-phenyl)(3-(trifluoro-methyl)bicyclo[1.1.1]pen-tan-1-yl)methyl)-2-methyl-3-oxopiperazine-1-carboxamide]",48.6
25,"Cc1cc(C(NC(=O)N2CCNC(=O)[C@H]2C)C2CCC(C(F)(F)F)CC2)ccc1F (single isomer, unassigned) [Example 36A]",55.7
26,"Cc1cc(C(NC(=O)N2CCNC(=O)[C@H]2C)C2CCC(C(F)(F)F)CC2)ccc1F (single isomer, unassigned) [Example 36B]",74.6
27,"Cc1cc(C(NC(=O)N2CCNC(=O)[C@H]2C)C2CCC(C(F)(F)F)CC2)ccc1F (single isomer, unassigned) [Example 36C]",58.1

# Reference: patent US20220380338A1, “CYCLOALKYL 3-OXOPIPERAZINE CARBOXAMIDES AND CYCLOHETEROALKYL 3-OXOPIPERAZINE CARBOXAMIDES AS NAV1.8 INHIBITORS” (Merck Sharp & Dohme LLC, priority 2021, published 2022)
